Laboratory results from the supplement of paper PMC10307832.

Columns and labels:
Assay in all cases: relative viability (nuclei count vs DMSO), 5 days (fraction); higher = more cells survive
[1] = compound: COc1cc2c(Oc3ccc4[nH]c(C)cc4c3F)ncnc2cc1OCCCN1CCCC1 [Cediranib] + CC(C)C[C@H](NC(=O)[C@H](Cc1ccccc1)NC(=O)c1cnccn1)B(O)O [Bortezomib] (partner 0.002 µM)
Method in brief: (§1)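 Five library-drug doses in √10 steps were combined with a fixed anchor-drug dose, or a single drug was given alone, by pin tool to lung cancer cell lines in 1536-well plates the day after seeding. Nuclei were stained and counted after 5 days. Relative viability is the nuclei count in treated wells over that in vehicle wells, taken as the median of duplicate plates.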

[2] = compound: O=C(C[C@H]1NCCC[C@@H]1O)Cn1cnc2cc(Br)c(Cl)cc2c1=O (racemic) [Halofuginone] + CC(C)C[C@H](NC(=O)[C@H](Cc1ccccc1)NC(=O)c1cnccn1)B(O)O [Bortezomib] (partner 0.002 µM)
Method in brief: as §1

[3] = compound: COc1cc2c(Oc3ccc4[nH]c(C)cc4c3F)ncnc2cc1OCCCN1CCCC1 [Cediranib] + CS(=O)(=O)N1CCN(Cc2cc3nc(-c4cccc5[nH]ncc45)nc(N4CCOCC4)c3s2)CC1 [Pictilisib] (partner 1 µM)
Method in brief: as §1

[4] = compound: COc1cc2c(Oc3ccc4[nH]c(C)cc4c3F)ncnc2cc1OCCCN1CCCC1 [Cediranib] + Nc1nc2[nH]cc(CCc3ccc(C(=O)N[C@@H](CCC(=O)O)C(=O)O)cc3)c2c(=O)[nH]1 [Pemetrexed] (partner 0.2 µM)
Method in brief: as §1

Row | Cell Line | relative viability ([1]; first compound 0.04 µM) | relative viability ([1]; first compound 0.1265 µM) | relative viability ([1]; first compound 0.4 µM) | relative viability ([1]; first compound 1.265 µM) | relative viability ([1]; first compound 4 µM) | relative viability ([2]; first compound 0.001 µM) | relative viability ([2]; first compound 0.003162 µM) | relative viability ([2]; first compound 0.01 µM) | relative viability ([2]; first compound 0.03162 µM) | relative viability ([2]; first compound 0.1 µM) | relative viability ([3]; first compound 0.04 µM) | relative viability ([3]; first compound 0.1265 µM) | relative viability ([3]; first compound 0.4 µM) | relative viability ([3]; first compound 1.265 µM) | relative viability ([3]; first compound 4 µM) | relative viability ([4]; first compound 0.04 µM) | relative viability ([4]; first compound 0.1265 µM) | relative viability ([4]; first compound 0.4 µM) | relative viability ([4]; first compound 1.265 µM) | relative viability ([4]; first compound 4 µM)
1 | NCI-H1651 | 0.972 | 0.87 | 0.915 | 0.914 | 0.894 | 0.93 | 0.972 | 0.915 | 0.898 | 0.903 | 0.666 | 0.77 | 0.533 | 0.458 | 0.445 | 0.601 | 0.619 | 0.592 | 0.497 | 0.53
2 | NCI-H1666 | 0.9 | 0.607 | 0.852 | 0.815 | 0.836 | 0.856 | 0.902 | 0.791 | 0.85 | 0.618 | 0.383 | 0.475 | 0.422 | 0.5 | 0.431 | 0.889 | 0.962 | 0.898 | 0.912 | 0.841
3 | NCI-H1734 | 0.831 | 0.814 | 0.806 | 0.837 | 1.24 | 1.14 | 0.919 | 0.939 | 0.814 | 0.632 | 0.457 | 0.541 | 0.54 | 0.365 | 0.47 | 0.472 | 0.409 | 0.412 | 0.425 | 0.425
4 | NCI-H1755 | 0.971 | 0.925 | 0.878 | 0.991 | 0.958 | 0.968 | 0.913 | 0.94 | 0.99 | 0.816 | 0.329 | 0.349 | 0.415 | 0.392 | 0.396 | 0.432 | 0.391 | 0.422 | 0.437 | 0.449
5 | NCI-H1792 | 1.07 | 1.14 | 0.953 | 0.955 | 0.762 | 0.965 | 1.01 | 1.01 | 0.942 | 0.866 | 0.305 | 0.33 | 0.3 | 0.312 | 0.291 | – | 1.13 | 0.567 | 0.742 | 0.796
6 | NCI-H1915 | 0.989 | 0.914 | 0.958 | 0.949 | 0.984 | 0.522 | 1.05 | 0.93 | 1 | 0.973 | 0.874 | 0.722 | 0.87 | 0.837 | 1.04 | 0.655 | 0.74 | 0.448 | 0.516 | 0.446
7 | NCI-H1975 | 0.423 | 0.479 | 0.326 | 0.432 | 0.345 | 0.432 | 0.383 | 0.402 | 0.339 | 0.168 | 0.316 | 0.466 | 0.275 | 0.239 | 0.29 | 0.269 | 0.314 | 0.277 | 0.301 | 0.284
8 | NCI-H1993 | 1.07 | 1.32 | 1.08 | 1.07 | 1.05 | 1.27 | 1.14 | 1.07 | 1.27 | 0.786 | 0.883 | 0.806 | 0.719 | 0.805 | 0.809 | – | 0.581 | 0.627 | 0.49 | 0.585
9 | NCI-H2009 | 0.934 | 0.246 | 1.04 | 0.943 | 1.12 | 1.07 | 1.28 | 0.95 | 0.799 | 0.32 | 0.769 | 0.325 | 0.644 | 0.639 | 0.822 | 1.08 | 0.914 | 0.957 | 1.04 | 0.999
10 | NCI-H2023 | 1.04 | 0.447 | 0.897 | 0.849 | 1.02 | 0.981 | 1.07 | 0.957 | 0.421 | 0.0849 | 0.269 | 0.101 | 0.226 | 0.193 | 0.236 | 0.283 | 0.274 | 0.254 | 0.233 | 0.248
11 | NCI-H2085 | 1.1 | 1.05 | 0.956 | 0.97 | 0.954 | 1.07 | 1.06 | 1.04 | 0.9 | 0.753 | 0.466 | 0.501 | 0.473 | 0.419 | 0.399 | 0.892 | 1.06 | 0.864 | 0.812 | 0.9
